Read-outs that look alike come from different tables or passages of the source.
Tests used:
[1] = test system: proteasome in Caco-2 (human colon carcinoma) cells; assay: Proteasome activity in Caco-2 cells treated with peptides for 48 h; assay type: cell-based; settings: for proteasomal activity in Caco-2 cells (in words): differentiated Caco-2 cells
Description: (§1) The proteasome down-regulation via APEH inhibition has been investigated. On the basis of the hypothesis that APEH can be used as a target to indirectly control/modulate proteasome functions in tumoral cells, an in vitro approach using the SsCEI 2, SsCEI 3 and SsCEI 4 peptides in the Caco-2 (human colon carcinoma) cell line has been carried out. To this end, differentiated Caco-2 cells were treated with peptides or with a specific proteasome inhibitor (MG132), for 48 h. […] The results were compared to those obtained in the cell-free assays, where a purified proteasome fraction was used.

[2] = test system: Caco-2 cells; assay: Cytotoxicity by lactate dehydrogenase (LDH) activity in cell-culture media; assay type: cell-based, human; settings: up to the highest concentration used (200 μM)
[3] = target: T1, porcine acylamino-acid-releasing enzyme (AARE or APEH) (Sus scrofa, UniProt P19205); assay: Inhibition of porcine acylamino-acid-releasing enzyme; assay type: biochemical; settings: for IC50: IC50 towards porcine acylamino-acid-releasing enzyme (AARE or APEH)
T1 sequence (P19205 1-732): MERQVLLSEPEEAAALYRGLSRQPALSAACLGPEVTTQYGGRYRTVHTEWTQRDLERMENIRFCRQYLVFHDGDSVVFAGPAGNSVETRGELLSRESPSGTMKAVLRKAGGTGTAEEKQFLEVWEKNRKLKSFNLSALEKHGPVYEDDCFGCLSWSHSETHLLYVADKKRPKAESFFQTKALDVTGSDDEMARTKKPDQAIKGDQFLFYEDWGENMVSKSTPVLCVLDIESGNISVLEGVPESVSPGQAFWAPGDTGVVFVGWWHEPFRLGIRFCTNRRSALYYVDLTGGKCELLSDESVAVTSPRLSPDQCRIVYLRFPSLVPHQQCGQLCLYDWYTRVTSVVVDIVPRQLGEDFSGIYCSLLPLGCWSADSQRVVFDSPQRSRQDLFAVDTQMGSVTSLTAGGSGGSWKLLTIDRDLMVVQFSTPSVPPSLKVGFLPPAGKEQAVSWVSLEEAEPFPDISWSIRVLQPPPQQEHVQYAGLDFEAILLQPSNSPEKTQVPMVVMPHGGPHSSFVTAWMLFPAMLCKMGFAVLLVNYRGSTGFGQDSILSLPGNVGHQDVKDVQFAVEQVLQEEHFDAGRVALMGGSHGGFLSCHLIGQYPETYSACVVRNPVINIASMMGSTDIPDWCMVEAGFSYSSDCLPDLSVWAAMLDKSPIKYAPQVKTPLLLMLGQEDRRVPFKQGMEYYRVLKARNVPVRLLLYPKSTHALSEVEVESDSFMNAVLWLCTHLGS
Description: The SsCEI 1 to 4 reported in the Example 1 were tested for ability to inhibit the activity of human acylamino-acid-releasing enzyme. Stock solutions (1 mM) of each lyophilized compounds were prepared in DMSO 100% and stored at 4° C. Inhibition effectiveness of each compound was determined by measuring enzyme activity both in the presence and absence of compounds. The activity of human acylamino-acid-releasing enzyme (AARE) was measured by using the chromogenic substrate N-acetyl-Ala-pNA (Bachem) (40 μM in DMSO 100%) as described above. […] Then, the substrate was added to the incubation mixture and the hydrolysis was performed for 20 min at 37° C. (FIG. 5). The data were fitted with the GraphPad Prism software. This analysis allowed the determination of IC50 values, which represent the concentrations at which the inhibition reached 50%. […] The IC50 values (See Table IV), obtained as average of 3-5 separate determinations, confirmed the utility of the compounds +of the present invention as effective AARE inhibitors.
The experiment described in example 7 has been performed using the porcine acylamino-acid-releasing enzyme. […] The efficiency of SsCEI 4 can be ascribed to the APEH preference for an alanine residue, with respect to the leucine, at the P1 site, assuming that the SsCEI-APEH association occurs in a substrate-like manner

[4] = test system: APEH in Caco-2 cells; assay: APEH activity in Caco-2 cells treated with peptides; assay type: cell-based, human; settings: 48 h, dose-dependent decrease
Description: as §1

[5] = test system: proteasome; assay: Cell-free proteasome assay with purified proteasome fraction; assay type: biochemical
Description: as §1

[6] = test system: caspase-3; assay: Caspase-3 activity after peptide treatment of Caco-2 cells; assay type: cell-based, human
Description: To elucidate the molecular mechanisms associated with the inhibition of the proteasome, the effects of treatments with the SsCEI 2 and SsCEI 4 peptides on the activation of caspases have been evaluated.

Row | Substance | proteasomal activity in Caco-2 cells (in words) [1] | cytotoxic effects, LDH activity levels in cell-culture media [2] | Ki [3] [µM] | IC50 [3] [µM] | type of inhibition of porcine APEH ([3]; Lineweaver-Burk plot) | Ki ([3]; porcine APEH, Lineweaver-Burk plot, read-out: Ki APEH) [µM] | residual proteasome activity with respect to untreated cultures ([1]; Caco-2 cells, dose-dependent decrease) | residual APEH activity with respect to untreated cultures [4] | proteasome activity in cell-free systems [5] | caspase-3 activity [6]
1 | H-TILLEIKNINAD-NH2 [SsCEI 2, TILLEIKNINAD] | markedly reduced proteasomal activity | not associated with any cytotoxic effects | – | – | – | – | – | – | – | –
2 | H-YAIDTILAEIKNINAD-NH2 [SsCEI 3, YAIDTILAEIKNINAD] | unable to affect proteasome | – | 20 ± 0.4 | 20 ± 0.4 | – | – | – | – | – | –
3 | H-TILAEIKNINAD-NH2 [SsCEI 4, TILAEIKNINAD] | markedly reduced proteasomal activity | not associated with any cytotoxic effects | – | 35 ± 0.8 | competitive inhibitor | 4 ± 0.8 | up to 45% | up to 45% | did not affect proteasome activity | increased in a dose dependent manner
